In patent US6423741B1, “Anti-microbial composition and method for producing the same” (priority 1998, dated 2002):
Converted amounts (≈) assume the structure as drawn. Like-named read-outs stand apart in the source and are kept apart here.

What was measured:
[1] = tested on: Escherchia coli (Wild type); assay: Frequency of spontaneous resistance on poison agar with nalidixic acid; format: cell-based; conditions: 50 μg/ml nalidixic acid poison agar
Method: (§1) In an experiment, the applicants first determined the frequency of spontaneous mutations in the bacteria Escherchia coil (Kumar, S. 1976. Journal of Bacteriology, 125: 545-555.) and Mycobacterium smegmatis (Snapper, S. B., Melton, R. E., Mustafa, S., Kieser, T. and Jacobs, W. R. 1990. Molecular Microbiology. 4:1911-1919.) leading to subsequent resistance development through selection in the presence of these drugs. Known titers of broth cultures of the bacteria were diluted and plated on poison agar medium containing 50 μg/ml nalidixic acid, and the resistant colonies thus developed were counted to estimate the frequency of drug resistance (Nal) development (Table 1).

[2] = tested on: Mycobacterium smegmatis (Wild type); assay: as above; format: cell-based; conditions: 50 μg/ml nalidixic acid poison agar
Method: as §1

[3] = tested on: E. coli (Wildtype); assay: Disc sensitivity of E. coli strains; format: cell-based; conditions: wild type strains; no dose stated
Text: (§2) Since pathogens always try to counter the drug by genetically modifying itself through mutation(s) in the region of the drug target gene, it is necessary to kill those mutant(s) resistant cells for effective drug management. With this rationale, the applicants evaluated a selected drug resistant mutant strain (Ml) for nalidixic acid (wild type strains being sensitive to nalidixic acid). This mutant strain developed from wild type was defective in Gyr A subunit confirmed by mobilizing a plasmid bearing a wild type gyr A gene. […] Similarly a second mutant (M2) developed from the gyr A^− mutant strain (Nal^r) became sensitive to nalidixic acid which being resistant to α arteether (Table 3). It was noted that invariably among all the tested strains, those resistant to nalidixic acid were sensitive to α arteether and the strains sensitive to nalidixic acid were resistant to cc arteether. […] This is so, because the resistance to nalidixic acid is developed by gyr A mutation and the mutants will be killed by α arteether while, the α-arteether resistant strains will automatically become nalidixic acid sensitive and thus will be killed by nalidixic acid and this way all the spontaneous resistant bacteria could be contained.

[4] = tested on: M1 (Mutant), gyr A− mutant; assay: Disc sensitivity of E. coli strains; format: cell-based; conditions: gyr A− mutant (M1) developed from wild type; no dose stated
Text: as §2

[5] = tested on: M2 (Mutant); assay: Disc sensitivity of E. coli strains; format: cell-based; conditions: second mutant (M2) developed from gyr A− mutant; no dose stated
Text: as §2

[6] = tested on: Escherchia coli mutant A1; assay: Minimum inhibitory concentration of nalidixic acid; format: cell-based
Method: (§3) To determine the correlation between nalidixic acid and α-arteether sensitivity, the applicants selected Escherchia coli cultures which were resistant to nalidixic acid at varying degrees (concentrations). Based on the minimal inhibitory concentration of nalidixic acid, Escherchia coli mutants were grouped as highly sensitive (MIC less than or equal to 10 μg/ml), resistant (MIC 10 to 200 μg/ml), […] (MIC more than or equal to 200 μg/ml). These strains were then tested for their sensitivity against α-arteether by estimating their growth (Absorbance at 620 nano meter wavelength of light) in presence of increasing concentrations of α-arteether. The absorbance data was converted to percent growth by considering the absorbance in control as 100%. The growth was then quantified as follows: 1.) greater than 80% growth : the mutant is highly resistant to α-arteether; 2.) 20 to 80% growth : the mutant is moderately resistant to α-arteether; 3.) less than 20% growth : the mutant is sensitive to α-arteether. […] In other words Escherchia coli mutants most resistant to nalidixic acid are most efficiently killed by α-arteether (Table 4) and vice versa.

[7] = tested on: Escherchia coli mutant A2; assay: Minimum inhibitory concentration of nalidixic acid; format: cell-based
Method: as §3

[8] = tested on: Escherchia coli mutant A3; assay: Minimum inhibitory concentration of nalidixic acid; format: cell-based
Method: as §3

[9] = tested on: Escherchia coli mutant A4; assay: Minimum inhibitory concentration of nalidixic acid; format: cell-based
Method: as §3

[10] = tested on: E. coli Wildtype; assay: Resistance study, combination treatment vs mixed mutant cultures (optical density at 620 nm); format: cell-based
Text: (§4) Continuing with the experimentation the applicants analyzed the growth of the mutant strains individually and upon co-cultivation compared to the wild type in presence of the compounds individually and in combination.

[11] = tested on: M1 + M2 (co-cultivation); assay: as above; format: cell-based, E. coli
Text: as §4

[12] = tested on: M1; assay: as above; format: cell-based, E. coli
Text: as §4

[13] = tested on: M2; assay: as above; format: cell-based, E. coli
Text: as §4

[14] = tested on: Escherchia coli (Nal′); assay: Frequency of spontaneous resistance on plates with α-arteether; format: cell-based; conditions: 1000 μg/ml α-arteether
Method: (§5) Further to determine the frequency of spontaneous resistant mutants in Escherchia coil and Mycobacterium smegmatis for α-arteether, the applicants used the nalidixic acid resistant mutants from the earlier example as the wild type strains since those were sensitive to α-arteether to isolate α-arteether resistant colonies. Known titers of broth cultures of the mutant (Nal) bacteria were diluted and plated in petriplates containing 1000 μg/ml α-arteether, and the resistant colonies thus developed were counted to determine the frequencies (Table 2).

[15] = tested on: Mycobacterium smegmatis (Nal′); assay: as above; format: cell-based; conditions: 1000 μg/ml α-arteether
Method: as §5

[16] = tested on: Escherchia coli mutant A1; assay: Growth (absorbance at 620 nm) at increasing concentrations of α-arteether; format: cell-based
Method: as §3

[17] = tested on: Escherchia coli mutant A2; assay: as above; format: cell-based
Method: as §3

[18] = tested on: Escherchia coli mutant A3; assay: as above; format: cell-based
Method: as §3

[19] = tested on: Escherchia coli mutant A4; assay: as above; format: cell-based
Method: as §3

[20] = Activity at different pH; conditions: pH (neutral)
Method: Further, it is worth noting here that the said compounds of the invention are already in use for human consumption and the safety data of applications of the compounds are already known. As a known example of prior art (Asthana, O. P, Srivastava, J. S and Valecha, N., 1997. Current status of the artemisinin derivatives in the treatment of malaria with focus on arteether. Journal of Parasitic Diseases. 21: 1-12.), α/β arteether mixture is given at 150 mg doses (one dose per day, for 3 days) as intramuscular injection for treatment of drug resistant and cerebral malaria cases. The injections in the mentioned preparation are prepared in neutralized vegetable oil. Both the compounds of invention that is, α arteether and the quinolones have shown the best activities at pH 7.0 (neutral) in our experiments. Thus, the composition of this invention can be used to treat bacterial infections, particularly the cases where the emergence of drug resistance is known to have high incidence level. The said composition/composition can be employed for prevention of resistance development through random mutations occurring in bacteria against antibiotics. Various classes of quinolone drugs thus can be administered along with α-arteether in form of injection by suspending the compound in the neutralised vegetable oil. […]

[21] = tested on: gyr mutant (Nal^r) strains of E.coli; conditions: earlier invention; cited from earlier work
[22] = tested on: wild type (Nal^s) strains of E.coli; conditions: earlier invention; cited from earlier work
[23] = read-out: Minimum inhibitory concentration of nalidixic acid
[24] = read-out: Group by minimal inhibitory concentration of nalidixic acid

CCn1cc(C(=O)O)c(=O)c2ccc(C)nc21 [nalidixic acid]
Frequency of spontaneous resistance developed against Nalidixic acid [1]: 7.1 × 10^−9 | Frequency of spontaneous resistance developed against Nalidixic acid [2]: 1.0 × 10^−10 | Sensitivity of the strain [3]: sensitive | Sensitivity of the strain [4]: resistant | Sensitivity of the strain [5]: sensitive | Group by minimal inhibitory concentration of nalidixic acid ([6]; mutant A1): sensitive) | MIC [6, 23]: < 4 µg/mL | MIC [7, 24]: 10 to 200 µg/mL (≈ 43.1 to 861 µM) | MIC [7, 23]: 37.5 µg/mL (≈ 161 µM) | MIC [8, 24]: 10 to 200 µg/mL (≈ 43.1 to 861 µM) | MIC [8, 23]: 150 µg/mL (≈ 646 µM) | MIC [9, 24]: > 200 µg/mL | MIC [9, 23]: > 300 µg/mL | Optical density at 620 nanometer ([10]; nalidixic acid 50 μg/ml): 0.000 | Optical density at 620 nanometer ([10]; nalidixic acid 300 μg/ml): 0.000 | Optical density at 620 nanometer ([11]; nalidixic acid 50 μg/ml): 0.910 | Optical density at 620 nanometer ([11]; nalidixic acid 300 μg/ml): 0.920 | Optical density at 620 nanometer ([12]; nalidixic acid 50 μg/ml): 0.950 | Optical density at 620 nanometer ([12]; nalidixic acid 300 μg/ml): 0.960 | Optical density at 620 nanometer ([13]; nalidixic acid 50 μg/ml): 0.000 | Optical density at 620 nanometer ([13]; nalidixic acid 300 μg/ml): 0.000

CCO[C@@H]1O[C@@H]2O[C@]3(C)CC[C@H]4[C@H](C)CC[C@@H]([C@H]1C)[C@@]24OO3 [α-arteether]
Frequency of spontaneous resistance developed against α-arteether [14]: 1.8 × 10^−9 | Frequency of spontaneous resistance developed against α-arteether [15]: 1.1 × 10^−10 | Sensitivity of the strain [4]: sensitive | Sensitivity of the strain [5]: resistant | Growth (absorbance at 620 nm) ([16]; 400 μg/ml α-arteether): 0.858 | Percent growth (absorbance in control as 100%) ([16]; 400 μg/ml α-arteether): (93%) | Growth (absorbance at 620 nm) ([16]; 800 μg/ml α-arteether): 0.854 | Percent growth (absorbance in control as 100%) ([16]; 800 μg/ml α-arteether): (93%) | Growth (absorbance at 620 nm) ([16]; 1200 μg/ml α-arteether): 0.817 | Percent growth (absorbance in control as 100%) ([16]; 1200 μg/ml α-arteether): (89%) | Growth (absorbance at 620 nm) ([17]; 400 μg/ml α-arteether): 0.607 | Percent growth (absorbance in control as 100%) ([17]; 400 μg/ml α-arteether): (66%) | Growth (absorbance at 620 nm) ([17]; 800 μg/ml α-arteether): 0.539 | Percent growth (absorbance in control as 100%) ([17]; 800 μg/ml α-arteether): (58%) | Growth (absorbance at 620 nm) ([17]; 1200 μg/ml α-arteether): 0.458 | Percent growth (absorbance in control as 100%) ([17]; 1200 μg/ml α-arteether): (50%) | Growth (absorbance at 620 nm) ([18]; 400 μg/ml α-arteether): 0.421 | Percent growth (absorbance in control as 100%) ([18]; 400 μg/ml α-arteether): (50%) | Growth (absorbance at 620 nm) ([18]; 800 μg/ml α-arteether): 0.405 | Percent growth (absorbance in control as 100%) ([18]; 800 μg/ml α-arteether): (47%) | Growth (absorbance at 620 nm) ([18]; 1200 μg/ml α-arteether): 0.390 | Percent growth (absorbance in control as 100%) ([18]; 1200 μg/ml α-arteether): 46% | Growth (absorbance at 620 nm) ([19]; 400 μg/ml α-arteether): 0.017 | Percent growth (absorbance in control as 100%) ([19]; 400 μg/ml α-arteether): (2%) | Growth (absorbance at 620 nm) ([19]; 800 μg/ml α-arteether): 0.007 | Percent growth (absorbance in control as 100%) ([19]; 800 μg/ml α-arteether): (0.7%) | Growth (absorbance at 620 nm) ([19]; 1200 μg/ml α-arteether): 0.000 | Percent growth (absorbance in control as 100%) ([19]; 1200 μg/ml α-arteether): (0%) | Optical density at 620 nanometer ([10]; α arteether 400 μg/ml): 0.890 | Optical density at 620 nanometer ([10]; α arteether 800 μg/ml): 0.90 | Optical density at 620 nanometer ([11]; α arteether 400 μg/ml): 0.920 | Optical density at 620 nanometer ([11]; α arteether 800 μg/ml): 0.930 | Optical density at 620 nanometer ([12]; α arteether 400 μg/ml): 0.000 | Optical density at 620 nanometer ([12]; α arteether 800 μg/ml): 0.000 | Optical density at 620 nanometer ([13]; α arteether 400 μg/ml): 0.900 | Optical density at 620 nanometer ([13]; α arteether 800 μg/ml): 0.91 | pH of best activities [20]: 7.0 | Effectiveness against the strains [21]: effective | Effectiveness against the strains [22]: ineffective
